The values that follow come from paper PMC8197367, “Comparative Antimicrobial Activity of Hp404 Peptide and Its Analogs against Acinetobacter baumannii” (International Journal of Molecular Sciences, 2021).

The subject of data set [1] is A. baumannii KCTC 2508. The data set is described as follows: Biofilm inhibition, crystal violet assay. It counts as cell-based, Acinetobacter baumannii. Particulars: NB with 0.2% glucose, 24 h, 37 °C, 595 nm, highest concentration 25 μM. On the procedure:
(§1) Acinetobacter baumannii KCTC 2508, #3, #4, 409081 and 719705 were incubated overnight at 37°C to mid-log phase in NB medium. Bacterial cells (5 × 10^5 CFU/mL) were suspended in NB containing 0.2% glucose. A final concentration of 25 μM of peptides and antibiotics (meropenem and polymyxin B) was prepared with the bacterial suspensions in 96-well tissue culture plates and incubated at 37 °C for 24 h. The culture media was carefully removed, and biofilms were fixed with 100% methanol for 15 min and then stained with 0.1% crystal violet for 1 h and rinsed three times with distilled water. After air-drying, the biofilm mass was dissolved in 100 μL of 95% ethanol and measured at 595 nm using a microplate reader.

For data set [2], the system named is A. baumannii 409081. Put plainly: Biofilm inhibition, crystal violet assay. It counts as cell-based, Acinetobacter baumannii. Particulars: NB with 0.2% glucose, 24 h, 37 °C, 595 nm, highest concentration 25 μM. On the procedure:
as §1

Data set [3] concerns A. baumannii #3. Put plainly: Biofilm inhibition, crystal violet assay. It counts as cell-based, Acinetobacter baumannii. Particulars: NB with 0.2% glucose, 24 h, 37 °C, 595 nm, highest concentration 25 μM. On the procedure: as §1
Data set [4] relates to A. baumannii biofilms. Put plainly: Live biofilm viability assay, SYTO 9 imaging. The format is cell-based, Acinetobacter baumannii. The settings on record: preformed biofilm treated with 50 μM for 24 h; A. baumannii including strains isolated from patients; EVOS FL Auto 2. On the procedure:
An A. baumannii biofilm viability assay was performed by staining with Syto9 dye. Acinetobacter baumannii strains were diluted to approximately 5 × 10^5 CFU/mL and incubated for 24 h. Biofilms of A. baumannii strains were washed with PBS and treated with 25 and 50 μM peptides and antibiotics for 24 h. Biofilms were stained with SYTO 9 diluted in PBS and the biofilm was visualized using an EVOS™ FL Auto 2 Imaging System (Thermo Fisher Scientific, Waltham, MA, USA).

The subject of data set [5] is A. baumannii #2. The data set is described as follows: microbe, parasite or virus in culture. Particulars: 18 h. The source says:
(§2) Staphylococcus aureus ATCC 25923, S. aureus ATCC 29213, P. aeruginosa ATCC 27853, Escherichia coli ATCC 25922 and Salmonella typhimurium ATCC 14028 strains were obtained from the American Type Culture Collection (ATCC, Manassas, VA, USA). Listeria monocytogenes KCTC 3710, Bacillus cereus KCTC 1012, K. pneumoniae KCTC 2208 and A. baumannii KCTC 2508 were obtained from the Korean Collection for Type Cultures (KRIBB, Daejeon, South Korea). Clinical isolates of A. baumannii strains were collected from Eulji University Hospital (Seoul, South Korea).
(§3) Hp1404 and its analog peptides activity against both gram-positive and gram-negative bacterial strains were tested using the broth microdilution method. Briefly, S. aureus (ATCC 25923, ATCC 29213) and B. cereus KCTC 1012 were cultured overnight at 37 °C in tryptic soy broth (TSB). P. aeruginosa ATCC 27853, K. pneumoniae KCTC 2208, A. baumannii KCTC 2508 and S. typhimurium ATCC 14028 were cultured overnight at 37 °C in nutrient broth (NB). E. coli ATCC 25922 was cultured overnight at 37 °C in luria bertani (LB). L. monocytogenes KCTC 3710 was cultured overnight at 37 °C in brain heart infusion (BHI). The cultures were diluted with fresh medium at a density of 2 × 10^5 CFU/mL. Peptides were serially diluted in sodium phosphate buffer (pH 7.2) to a final concentration of 25 μM. In a 96-well plate, 50-μL bacterial aliquots were mixed with 50 μL peptide solution. After incubation at 37 °C for 18 h, the MIC was determined using a plate reader at 600 nm. The experiment was performed in triplicate.

For data set [6], the system named is A. baumannii #4. Put plainly: microbe, parasite or virus in culture. The settings on record: 18 h.
Source text: as §2, §3

For data set [7], the system named is A. baumannii 719705. The data set is described as follows: microbe, parasite or virus in culture.
Source text: as §2, §3

The subject of data set [8] is A. baumannii 409081. Put plainly: microbe, parasite or virus in culture.
Source text: as §2, §3

In data set [9] the test system is A. baumannii #3. Put plainly: microbe, parasite or virus in culture. Particulars: 18 h.
Source text: as §2, §3

For data set [10], the system named is A. baumannii 907233. Put plainly: microbe, parasite or virus in culture.
Source text: as §2, §3

The test system of data set [11] is P. aeruginosa ATCC 27853. Put plainly: MIC, broth microdilution. It counts as cell-based. Particulars: two-fold broth microdilution, NB, 2 × 10^5 CFU/mL, 37 °C, 18 h, read at 600 nm, three independent experiments. On the procedure:
(§4) The experiment was performed in triplicate.
A general note: Broth dilution looks for growth in wells or tubes with falling amounts of substance.

In data set [12] the test system is K. pneumoniae KCTC 2208. Put plainly: MIC, broth microdilution. The format is cell-based. The settings on record: two-fold broth microdilution, NB, 2 × 10^5 CFU/mL, 37 °C, 18 h, read at 600 nm, three independent experiments. On the procedure: as §4
For data set [13], the system named is S. typhimurium ATCC 14028. The data set is described as follows: MIC, broth microdilution. The format is cell-based, Salmonella typhimurium. Particulars: two-fold broth microdilution, NB, 2 × 10^5 CFU/mL, 37 °C, 18 h, read at 600 nm, three independent experiments. On the procedure: as §4
The test system of data set [14] is mouse red blood cells. The data set is described as follows: Hemolytic assay. It counts as cell-based. Particulars: 50 μM peptide (highest tested concentration); 8% mouse red blood cells in PBS, 1 h, 37 °C, absorbance 414 nm, vs 0.1% Triton X-100. On the procedure: The hemolytic activity of the peptides against mouse erythrocytes was determined using red blood cells. Fresh mouse red blood cells were washed three times and resuspended in PBS to attain an 8% dilution. Peptides were serially diluted to a final concentration of 50 μM. Next, 100 µL peptide solution was added to 100 μL of mouse red blood cells, wrapped with aluminum foil and incubated for 1 h at 37 °C. The mixture was then centrifuged at 1500× g for 10 min. The supernatant was transferred into a new 96-well plate, and the absorbance of the supernatant was measured at 414 nm. As positive and negative controls, […] in mouse red blood cells were used. Hemolysis was evaluated according to the following equation:
Hemolysis (%) = [(Abs414 nm in the peptide solution − Abs414 nm in PBS)/(Abs414 nm in 0.1% Triton X-100 − Abs414 nm in PBS)] × 100.

Data set [15] concerns S. aureus ATCC 29213. The data set is described as follows: MIC, broth microdilution. The format is cell-based, Staphylococcus aureus. The settings on record: two-fold broth microdilution, TSB, 2 × 10^5 CFU/mL, 37 °C, 18 h, read at 600 nm, three independent experiments. On the procedure: as §4
Data set [16] concerns S. aureus ATCC 25923. Put plainly: MIC, broth microdilution. It counts as cell-based, Staphylococcus aureus. The settings on record: two-fold broth microdilution, TSB, 2 × 10^5 CFU/mL, 37 °C, 18 h, read at 600 nm, three independent experiments. On the procedure:
as §4

The conditions of data set [17]: calcein-loaded LUVs, Figure 4c. On the procedure:
Peptide-induced membrane permeability was monitored be measuring calcein dye emission in calcein-loaded LUVs. We prepared the lipid mixture, and PC:CH (2:1, w/w) and PC:CH:SM liposomes (1:1:1, w/w) were prepared with 70 mM calcein buffer. A Sephadex G-50 column was used to separate calcein-loaded liposomes from free calcein dye. The LUVs (10 μM) were mixed with various concentrations of the peptide on a 96-well black plate. The fluorescence intensity was measured at excitation and emission wavelengths of 480 and 520 nm, respectively.

In data set [18] the test system is B. cereus KCTC 1012. Put plainly: MIC, broth microdilution. The format is cell-based, Bacillus cereus. Particulars: two-fold broth microdilution, TSB, 2 × 10^5 CFU/mL, 37 °C, 18 h, read at 600 nm, three independent experiments. On the procedure:
as §4

For data set [19], the system named is A. baumannii KCTC 2508. The data set is described as follows: MIC, broth microdilution. The format is cell-based, Acinetobacter baumannii. Particulars: two-fold broth microdilution, NB, 2 × 10^5 CFU/mL, 37 °C, 18 h, read at 600 nm, no added salt, three independent experiments. On the procedure:
as §4

The subject of data set [20] is L. monocytogenes KCTC 3710. Put plainly: MIC, broth microdilution. It counts as cell-based, Listeria monocytogenes. The settings on record: two-fold broth microdilution, BHI, 2 × 10^5 CFU/mL, 37 °C, 18 h, read at 600 nm, three independent experiments. On the procedure: as §4
Data set [21] is described as follows: Calcein leakage assay. Particulars: PC:CH LUVs (10 μM) loaded with calcein; excitation 480 nm, emission 520 nm; various peptide concentrations.
Protocol: (§5) Peptide-induced membrane permeability was monitored be measuring calcein dye emission in calcein-loaded LUVs [49]. We prepared the lipid mixture, and PC:CH (2:1, w/w) and PC:CH:SM liposomes (1:1:1, w/w) were prepared with 70 mM calcein buffer. A Sephadex G-50 column was used to separate calcein-loaded liposomes from free calcein dye. The LUVs (10 μM) were mixed with various concentrations of the peptide on a 96-well black plate. The fluorescence intensity was measured at excitation and emission wavelengths of 480 and 520 nm, respectively.
For data set [22], the system named is E. coli ATCC 25922. Put plainly: MIC, broth microdilution. The format is cell-based, Escherichia coli. Particulars: two-fold broth microdilution, LB, 2 × 10^5 CFU/mL, 37 °C, 18 h, read at 600 nm, three independent experiments. On the procedure:
as §4

Data set [23] in a line: Calcein leakage assay. The settings on record: PC:CH:SM (1:1:1, w/w) LUVs (10 μM) loaded with calcein; excitation 480 nm, emission 520 nm; various peptide concentrations.
Protocol: as §5
For data set [24], the system named is HaCaT cells. Particulars: 50 μM peptide, 24 h, MTT assay. On the procedure: The cytotoxicity of the peptides against mammalian cells was calculated using the MTT assay. Human keratinocyte HaCaT cells were incubated in Dulbecco’s modified Eagle’s medium (DMEM) supplemented with 10% fetal bovine serum and 1% penicillin at 37 °C with 5% CO2. HaCaT cells were added at 2 × 10^5 cells/mL to DMEM supplemented with 10% fetal bovine serum and placed in 96-well plates. The plates were incubated overnight at 37 °C in a CO2 incubator. Peptides were serially diluted two-fold in DMEM, added to the cell cultures and incubated for 24 h at 37 °C. MTT solution (5 mg/mL) was added to each well and incubated for 1 h at 37 °C. The media was discarded, and the formazan crystals were dissolved in 100 μL dimethyl sulfoxide. The absorbance was measured using a Versa-Max microplate ELISA reader (Molecular Devices, Sunnyvale, CA, USA) at 570 and 650 nm. As a […], 0.1% Triton X-100 was used.
A general note: Formazan colour is commonly taken as a measure of viable cells.

Data set [25] deals with A. baumannii 719705. Put plainly: Biofilm inhibition, crystal violet assay. It counts as cell-based, Acinetobacter baumannii. Particulars: NB with 0.2% glucose, 24 h, 37 °C, 595 nm, highest concentration 25 μM. On the procedure: as §1

Values after ≈ are worked out from the molar mass of the structure shown. Where no end group is shown, it is not given here.

For `C[C@@H](O)[C@H]1C(=O)N2C(C(=O)O)=C(S[C@@H]3CN[C@H](C(=O)N(C)C)C3)[C@H](C)[C@H]12` [Meropenem, meropenem, reference compound], the “concentration that inhibited biofilm formation” value was 6.25 µM in [1], ≥ 25 µM in data set [2] and ≥ 25 µM in data set [3]. Besides, in [4], the “biofilm reduction by SYTO 9 fluorescence imaging” value is recorded as “did not decrease biofilm formation”. Also, the MIC amounted to 100 µM (≈ 38.3 µg/mL) in data set [5] (Acinetobacter baumannii); 100 µM (≈ 38.3 µg/mL) in data set [6] (Acinetobacter baumannii); 100 µM (≈ 38.3 µg/mL) in [7] (Acinetobacter baumannii, 719705, 18 h); 200 µM (≈ 76.7 µg/mL) in [8] (Acinetobacter baumannii, 409081, 18 h); 50 µM (≈ 19.2 µg/mL) in [9] (Acinetobacter baumannii); 200 µM (≈ 76.7 µg/mL) in [10] (Acinetobacter baumannii, 907233, 18 h).
For GILGKLWEGVKSIK-NH2 [Hp1404-K], the MIC in data set [11] is >25 µM; in data set [12] it was >25 µM; in [13] it was 12.5 µM; in data set [15], >25 µM; in data set [16], 25 µM; in data set [18] it was >25 µM. The MIC is reported as 25 µM in [19], >25 µM in data set [20] and >25 µM in data set [22]. The hemolytic activity result in [14] is listed as “no hemolytic activity”. The “calcein leakage fluorescence (bioimaging)” value in data set [17] was “no fluorescence was observed”. For the same molecule, the “calcein release (fluorescence intensity)” value in [21] and in [23] was “did not release calcein” each time.
As for GILGKLWEGVKSIA-NH2 [Hp1404-A], the MIC in data set [11] was >25 µM; in data set [12] it was >25 µM; in data set [13], 25 µM; in data set [15], >25 µM; in [16] it was 12.5 µM; in data set [18], >25 µM. Further, the MIC is 25 µM in data set [19], >25 µM in [20] and >25 µM in [22]. Also, the hemolytic activity entry in data set [14] is listed as “no hemolytic activity”. Further, in [17], the “calcein leakage fluorescence (bioimaging)” value is reported as “no fluorescence was observed”. The “calcein release (fluorescence intensity)” value in [21] and in [23] was “did not release calcein” in each case. This molecule also yielded a Cell viability in data set [24] of 100%.
Regarding polymyxin B [reference compound], the “concentration that inhibited biofilm formation” value in [1], in data set [25], in data set [2] and in data set [3] was 6.25 µM each time. For the same molecule, the “biofilm reduction by SYTO 9 fluorescence imaging” value in data set [4] is listed as “did not decrease biofilm formation”. Also, the MIC is recorded as 0.39 µM in data set [5] (A. baumannii #2 isolated from patient, broth microdilution, 37 °C, three independent experiments); 0.39 µM in [6] (A. baumannii #4 isolated from patient, broth microdilution, 37 °C, three independent experiments); 0.78 µM in data set [7] (A. baumannii 719705 isolated from patient, broth microdilution, 37 °C, 18 h, three independent experiments); 0.78 µM in [8] (A. baumannii 409081 isolated from patient, broth microdilution, 37 °C, 18 h, three independent experiments); 0.78 µM in data set [9] (A. baumannii #3 isolated from patient, broth microdilution, 37 °C, three independent experiments); 0.78 µM in data set [10] (A. baumannii 907233 isolated from patient, broth microdilution, 37 °C, 18 h, three independent experiments).
